Experiments:
human mGluR2 receptor = biological target: T1, human mGluR2 receptor (Homo sapiens, UniProt Q14416); test: [35S]GTPγS binding assay (GTPγS-PAM): positive allosteric modulation in presence of glutamate at EC25, membranes from transfected CHO cells; type: biochemical; settings: in presence of mGluR2 agonist glutamate at predetermined EC25 concentration, averages of duplicate values of 11-concentration response curves; for EC50: read-out: GTPgS - hR2 PAM pEC50 (converted)
T1 construct: expressed in transfected cells; host or cells: CHO cells (membrane preparation)
Summary of the method: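 Membranes came from butyrate-stimulated CHO cells expressing human mGluR2, used at 15 μg/well in HEPES pH 7.4 with 100 mM NaCl, 3 mM MgCl2, 50 μM GDP and saponin. Compound (0.3 nM-50 μM, 11 concentrations) plus glutamate at EC25 was preincubated 30 min at 30° C., then 0.1 nM [35S]GTPγS was added for 30 min. Filter-bound radioactivity was counted, nonspecific binding was taken with 10 μM GTP, and curves were fitted by four-parameter logistic.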

T1 sequence (Q14416 19-872): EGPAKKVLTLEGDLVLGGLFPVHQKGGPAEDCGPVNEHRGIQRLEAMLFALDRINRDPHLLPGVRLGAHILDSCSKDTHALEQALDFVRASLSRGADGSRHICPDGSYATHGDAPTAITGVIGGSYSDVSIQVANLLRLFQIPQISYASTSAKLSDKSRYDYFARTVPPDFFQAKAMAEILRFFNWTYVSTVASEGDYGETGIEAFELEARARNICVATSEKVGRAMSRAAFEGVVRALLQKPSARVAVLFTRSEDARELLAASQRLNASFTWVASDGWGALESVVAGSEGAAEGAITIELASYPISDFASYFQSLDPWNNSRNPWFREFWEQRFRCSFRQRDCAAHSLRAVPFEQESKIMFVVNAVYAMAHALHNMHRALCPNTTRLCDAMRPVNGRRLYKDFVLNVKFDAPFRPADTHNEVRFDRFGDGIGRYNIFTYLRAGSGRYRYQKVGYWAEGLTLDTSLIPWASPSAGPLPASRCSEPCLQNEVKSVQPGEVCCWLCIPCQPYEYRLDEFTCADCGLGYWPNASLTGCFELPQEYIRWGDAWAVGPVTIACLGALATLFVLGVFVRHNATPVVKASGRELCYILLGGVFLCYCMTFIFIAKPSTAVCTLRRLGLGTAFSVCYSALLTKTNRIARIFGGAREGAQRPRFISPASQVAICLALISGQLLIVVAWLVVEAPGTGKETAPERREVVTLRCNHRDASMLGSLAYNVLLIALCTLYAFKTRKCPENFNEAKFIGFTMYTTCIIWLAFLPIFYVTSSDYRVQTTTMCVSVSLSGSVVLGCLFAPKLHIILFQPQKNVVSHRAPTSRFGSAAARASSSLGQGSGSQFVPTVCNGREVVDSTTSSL

COc1ccc(CNc2ccc(-c3ccn(CCC(C)C)c(=O)c3C#N)cc2)cc1 [1-203]
melting point: 173 °C
EC50 (human mGluR2 receptor): 316 nM

CC(C)CCn1ccc(NC2CCN(c3ccc(C(F)(F)F)cn3)CC2)c(C#N)c1=O [3-004]
melting point: 188 °C
EC50 (human mGluR2 receptor): 251 nM

CC(C)CCn1ccc(-c2ccc3c(c2)OCO3)c(C#N)c1=O [1-252]
melting point: 120 to 121 °C
EC50 (human mGluR2 receptor): 6310 nM

N#Cc1c(-c2ccc(N3CCOCC3)cc2)ccn(Cc2ccc(OC(F)(F)F)cc2)c1=O [1-032]
melting point: 190 °C
EC50 (human mGluR2 receptor): 794 nM

COc1ccc2c(c1)C1CCCN(c3ccn(CCC(C)C)c(=O)c3C#N)C1CC2 (stereo not drawn) [5-035]
melting point: 169 °C
EC50 (human mGluR2 receptor): 1580 nM

CC(C)CCn1ccc(-c2ccc(CC(=O)N(C)C)cc2)c(C#N)c1=O [1-244]
melting point: 122 °C
EC50 (human mGluR2 receptor): 6310 nM

COc1ccc(-c2ccn(CCC(C)C)c(=O)c2C#N)cc1OC [1-110, 4-(3,4-dimethoxyphenyl)-3-cyano-1-(3-methylbutyl)pyridine-2(1H)-one]
melting point: 52 °C
EC50 (human mGluR2 receptor): 2510 nM

Cc1nc(COc2ccc(-c3ccn(CCC(C)C)c(=O)c3C#N)cc2)cs1 [1-169]
melting point: 144 °C
EC50 (human mGluR2 receptor): 501 nM

CC(C)CCn1ccc(-c2cccc(F)c2)c(C#N)c1=O [1-088]
melting point: 161 °C
EC50 (human mGluR2 receptor): 2510 nM

CC1CCC(Cn2ccc(-c3ccc(OC(F)(F)F)cc3)c(C#N)c2=O)CC1 (stereo not drawn) [1-014]
melting point: 143 °C
EC50 (human mGluR2 receptor): 100 nM

CC(C)CCn1ccc(-c2cccc(O)c2)c(C#N)c1=O [1-096]
melting point: 201 °C
EC50 (human mGluR2 receptor): 1580 nM

CC(C)Cn1ccc(N2CCN(Cc3ccc(OC(F)(F)F)c(Cl)c3)CC2)c(C#N)c1=O [2-010]
melting point: 112 °C
EC50 (human mGluR2 receptor): 1000 nM

CCCOc1ccc(-c2ccn(CCC(C)C)c(=O)c2C#N)cc1 [1-105]
melting point: 107 °C
EC50 (human mGluR2 receptor): 398 nM

N#Cc1c(N2CCN(Cc3ccc(F)cc3)CC2)ccn(Cc2ccc(OC(F)(F)F)cc2)c1=O [2-044]
melting point: 156 °C
EC50 (human mGluR2 receptor): 1580 nM

COc1ccc(-c2ccn(CCOc3ccccc3)c(=O)c2C#N)cc1 [1-048]
melting point: 188 °C
EC50 (human mGluR2 receptor): 1000 nM

CC(C)CCn1ccc(N2CCC(n3ccc4cc(F)ccc43)CC2)c(C#N)c1=O [4-037]
melting point: 78 °C
EC50 (human mGluR2 receptor): 126 nM

CC(C)CCn1ccc(-c2ccc(N3CCOc4ccccc43)cc2)c(C#N)c1=O [1-228]
melting point: 148 °C
EC50 (human mGluR2 receptor): 79.4 nM

COc1ccc(-c2ccn(CC3CCC(C)CC3)c(=O)c2C#N)cc1 (stereo not drawn) [1-013]
melting point: 128 °C
EC50 (human mGluR2 receptor): 126 nM

N#Cc1c(N2CCN(Cc3ccc(OCC4CC4)c(Cl)c3)CC2)ccn(CC2CC2)c1=O [2-040]
melting point: 157 °C
EC50 (human mGluR2 receptor): 501 nM

N#Cc1c(NC2CCN(Cc3ccc(OC(F)(F)F)c(Cl)c3)CC2)ccn(CC2CC2)c1=O [3-010]
melting point: 187 °C
EC50 (human mGluR2 receptor): 1580 nM

CC(C)CCn1ccc(N2CCC(C(=O)c3ccccc3)CC2)c(C#N)c1=O [4-012]
melting point: 296 °C
EC50 (human mGluR2 receptor): 398 nM

CC(C)CCn1ccc(-c2ccc(N3CCOCC3)cc2)c(C#N)c1=O [1-223, 3-cyano-4-(4-(N-morpholyl)phenyl)-1-(3-methylbutyl)pyridine-2(1H)-one]
melting point: 171 °C
EC50 (human mGluR2 receptor): 2000 nM

CC(C)CCn1ccc(-c2ccc(-c3ccccc3)cc2)c(C#N)c1=O [1-093]
melting point: 172 °C
EC50 (human mGluR2 receptor): 25.1 nM

COCc1ccc(-c2ccn(CCC(C)C)c(=O)c2C#N)cc1 [1-103, 3-cyano-4-(4-methoxymethylphenyl)-1-(3-methylbutyl)pyridine-2(1H)-one]
melting point: 91 °C
EC50 (human mGluR2 receptor): 2000 nM

N#Cc1c(-c2ccc3[nH]ccc3c2)ccn(Cc2ccc(OC(F)(F)F)cc2)c1=O [5-051]
melting point: 166 °C
EC50 (human mGluR2 receptor): 251 nM

N#Cc1c(-c2cccs2)ccn(CCCc2ccccc2)c1=O [1-052]
melting point: 118 °C
EC50 (human mGluR2 receptor): 2000 nM

CC(C)CCn1ccc(-c2ccc(N3CCOCC3)c(Br)c2)c(C#N)c1=O [1-226]
melting point: 118 °C
EC50 (human mGluR2 receptor): 126 nM

CC(C)CCn1ccc(-c2ccc(NCc3cccc(C#N)c3)cc2)c(C#N)c1=O [1-204]
melting point: 157 °C
EC50 (human mGluR2 receptor): 25.1 nM

CC(C)CCn1ccc(-c2ccc(NCc3cccc(F)c3)cc2)c(C#N)c1=O [1-199]
melting point: 136 °C
EC50 (human mGluR2 receptor): 63.1 nM

CN(Cc1cccc(F)c1)C1CCN(c2ccn(Cc3ccc(F)cc3)c(=O)c2C#N)CC1 [4-057]
melting point: 242 °C
EC50 (human mGluR2 receptor): 1000 nM

CC(C)CCn1ccc(OC2CCN(Cc3ccccc3)CC2)c(C#N)c1=O [3-007]
melting point: 208 °C
EC50 (human mGluR2 receptor): 6310 nM

CC(C)CCn1ccc(N(C)C2CCN(Cc3cccc(C(F)(F)F)c3)CC2)c(C#N)c1=O [3-006]
melting point: 131 °C
EC50 (human mGluR2 receptor): 2510 nM

CC(C)CCn1ccc(-c2ccc(CN(C)C)cc2)c(C#N)c1=O [1-173]
melting point: 130 °C
EC50 (human mGluR2 receptor): 6310 nM

CC(C)CCn1ccc(C#Cc2ccc(N(C)C)cc2)c(C#N)c1=O [1-270]
melting point: 166 °C
EC50 (human mGluR2 receptor): 100 nM

CC(C)CCn1ccc(-c2ccc(OC(C)C)c(Cl)c2)c(C#N)c1=O [1-117]
melting point: 166 °C
EC50 (human mGluR2 receptor): 63.1 nM

CC(C)CCn1ccc(N2CCC(c3nc4ccccc4o3)CC2)c(C#N)c1=O [4-038]
melting point: 214 °C
EC50 (human mGluR2 receptor): 398 nM

CC(C)CCn1ccc(-c2ccc(OCC#N)cc2)c(C#N)c1=O [1-131]
melting point: 132 °C
EC50 (human mGluR2 receptor): 2510 nM

CC(=O)N1CCN(c2cccc(-c3ccn(CCC(C)C)c(=O)c3C#N)c2)CC1 [1-230]
melting point: 143 °C
EC50 (human mGluR2 receptor): 501 nM

CC(C)CCn1ccc(-c2ccc(OCc3ccc(C#N)cc3)cc2)c(C#N)c1=O [1-153]
melting point: 171 °C
EC50 (human mGluR2 receptor): 50.1 nM

CC(C)CCn1ccc(N2CCN(c3ncccc3C(F)(F)F)CC2)c(C#N)c1=O [2-026]
melting point: 135 °C
EC50 (human mGluR2 receptor): 200 nM

CC(C)CCn1ccc(OCC2CCN(Cc3cccc(C(F)(F)F)c3)CC2)c(C#N)c1=O [3-009]
melting point: 117 °C
EC50 (human mGluR2 receptor): 158 nM

CC(C)CCn1ccc(-c2ccc(NCC#N)cc2)c(C#N)c1=O [1-186]
melting point: 269 °C
EC50 (human mGluR2 receptor): 794 nM

CC(C)CCn1ccc(-c2ccc(OCc3ccc(C(F)(F)F)nc3)cc2)c(C#N)c1=O [1-163]
melting point: 202 °C
EC50 (human mGluR2 receptor): 79.4 nM

CC(C)CCn1ccc(-c2cccc(NS(C)(=O)=O)c2)c(C#N)c1=O [1-215]
melting point: 70 °C
EC50 (human mGluR2 receptor): 3160 nM

N#Cc1c(-c2ccccc2)ccn(Cc2ccc(-c3ccccc3)cc2)c1=O [1-042]
melting point: 185 °C
EC50 (human mGluR2 receptor): 158 nM

CC(C)CCn1ccc(-c2ccc(OCc3ccccn3)cc2)c(C#N)c1=O [1-157]
melting point: 162 °C
EC50 (human mGluR2 receptor): 398 nM

CC(C)CCn1ccc(-c2ccc3c(c2)CCO3)c(C#N)c1=O [1-251]
melting point: 117 °C
EC50 (human mGluR2 receptor): 1260 nM

CC(C)CCn1ccc(N2CCC(N(C)Cc3ccc(F)cc3)CC2)c(C#N)c1=O [4-027]
melting point: 113 °C
EC50 (human mGluR2 receptor): 1260 nM

CCCCn1ccc(N2CCN(Cc3cc(F)cc(C(F)(F)F)c3)CC2)c(C#N)c1=O [2-001]
melting point: 183 °C
EC50 (human mGluR2 receptor): 3160 nM

CC(C)CCn1ccc(-c2ccc(NCc3ccncc3)cc2)c(C#N)c1=O [1-210]
melting point: 73 °C
EC50 (human mGluR2 receptor): 1000 nM

CC(C)CCn1ccc(-c2ccc(Cl)cc2)c(C#N)c1=O [1-091]
melting point: 137 °C
EC50 (human mGluR2 receptor): 1580 nM

CC(C)CCn1ccc(-c2ccc(C(C)(C)C)cc2)c(C#N)c1=O [1-086]
melting point: 168 °C
EC50 (human mGluR2 receptor): 63.1 nM

CC(C)CCn1ccc(-c2ccc(NCc3cccc(Cl)c3)cc2)c(C#N)c1=O [1-202]
melting point: 146 °C
EC50 (human mGluR2 receptor): 31.6 nM

CCCCn1ccc(N2CCN(Cc3ccc(OC(F)(F)F)c(Cl)c3)CC2)c(C#N)c1=O [2-002]
melting point: 127 °C
EC50 (human mGluR2 receptor): 316 nM

N#Cc1c(-c2ccccc2)ccn(Cc2cccc(OC(F)(F)F)c2)c1=O [1-030]
melting point: 153 °C
EC50 (human mGluR2 receptor): 316 nM

CC(C)CCn1ccc(N2CCC(N(C)c3cccc(C(F)(F)F)c3)CC2)c(C#N)c1=O [4-031]
melting point: 141 °C
EC50 (human mGluR2 receptor): 63.1 nM

COc1ccc(-c2ccn(Cc3ccc(OC(F)(F)F)cc3)c(=O)c2C#N)cc1 [1-039]
melting point: 169 °C
EC50 (human mGluR2 receptor): 158 nM

CC(C)CCn1ccc(-c2ccc(OCC(F)F)c(Cl)c2)c(C#N)c1=O [1-122]
melting point: 131 °C
EC50 (human mGluR2 receptor): 1000 nM

COc1cccc(-c2ccn(CCC(C)C)c(=O)c2C#N)c1 [1-101]
melting point: 96 °C
GTPgS - hR2 PAM pEC50 (human mGluR2 receptor): 5.5

CCCCn1ccc(Nc2ccc(Oc3cccnc3)cc2)c(C#N)c1=O [1-296]
melting point: 151 °C
EC50 (human mGluR2 receptor): 1580 nM

CC(C)CCn1ccc(N2CCN(c3nccc(C(F)(F)F)n3)CC2)c(C#N)c1=O [2-029]
melting point: 155 °C
EC50 (human mGluR2 receptor): 251 nM

N#Cc1c(-c2cccs2)ccn(Cc2ccc(C(F)(F)F)nc2)c1=O [1-046]
melting point: 185 °C
EC50 (human mGluR2 receptor): 1260 nM

CC(=O)N(C)Cc1ccc(-c2ccn(CCC(C)C)c(=O)c2C#N)cc1 [1-177]
melting point: 112 °C
EC50 (human mGluR2 receptor): 3980 nM

COC(=O)CCc1ccc(-c2ccn(CCC(C)C)c(=O)c2C#N)cc1 [1-239]
melting point: 120 °C
EC50 (human mGluR2 receptor): 794 nM

CC(C)CCn1ccc(N2CCc3c(oc4ccccc34)C2)c(C#N)c1=O [5-041]
melting point: 130 °C
EC50 (human mGluR2 receptor): 50.1 nM

Cc1ccc(Cn2ccc(-c3ccco3)c(C#N)c2=O)cc1 [1-018]
melting point: 155 °C
EC50 (human mGluR2 receptor): 2510 nM

Reference: US9266834B2, “1, 4-disubstituted 3-cyano-pyridone derivatives and their use as positive allosteric modulators of MGLUR2-receptors” (JANSSEN PHARMACEUTICALS, INC., priority 2006, dated 2016)
